Reference: patent US20130165641A1, “6,11-BRIDGED BIARYL MACROLIDES” (Enanta Pharmaceuticals, Inc., priority 2007, published 2013)
Values after ≈ are worked out from the molar mass of the structure shown.

Test system: MRSA
Assay: MIC by micro-dilution method, MRSA isolates
Type: cell-based, Staphylococcus aureus
Details: compounds of Formula XVI; for MIC MRSA 7662: MRSA isolate 7662; for MIC MRSA 33591: MRSA isolate 33591
Procedure: Susceptibility tests can be used to quantitatively measure the in vitro activity of an antimicrobial agent against a given bacterial isolate. Compounds are tested for in vitro antibacterial activity by a micro-dilution method. Minimal Inhibitory Concentration (MIC) is determined in 96 well microtiter plates utilizing the appropriate broth medium for the observed bacterial isolates. […] The diluted compounds (2 μl/well) are then transferred into sterile, uninoculated medium (0.2 mL) by use of a 96 fixed tip-pipetting station. The inoculum for each bacterial strain is standardized to approximately 5×10^5 CFU/mL by optical comparison to a 0.5 McFarland turbidity standard. The plates are inoculated with 10 μl/well of adjusted bacterial inoculum. The 96 well plates are covered and incubated at 35+/−2° C. for 24 hours in ambient air environment. Following incubation, plate wells are visually examined by Optical Density measurement for the presence of growth (turbidity). The lowest concentration of an antimicrobial agent at which no visible growth occurs is defined as the MIC.
All in vitro testing follows the guidelines described in the Approved Standards M7-A7 protocol, published by the Clinical Laboratory Standards Institute (CLSI).

Structure (SMILES)	MIC MRSA 7662	MIC MRSA 33591
CC[C@H]1OC(=O)[C@H](C)C(=O)[C@H](C)[C@@H](O[C@@H]2O[C@H](C)C[C@H](N(C)C)[C@H]2O)[C@@]2(C)C[C@@H](C)C(=NC(C)=O)[C@H](C)[C@@H](OC/C(=N\OCc3ccc(-c4nc(N)cs4)cn3)CO2)[C@]1(C)O [Example 108]	8 µg/mL (≈ 9.16 µM)	8 µg/mL (≈ 9.16 µM)
CCC(=O)N=C1[C@H](C)C[C@@]2(C)OC/C(=N/OCc3ncc(-c4cccc(N)n4)s3)CO[C@H]([C@H]1C)[C@](C)(O)[C@@H](CC)OC(=O)[C@@](C)(F)C(=O)[C@H](C)[C@H]2O[C@@H]1O[C@H](C)C[C@H](N(C)C)[C@H]1O [Example 110]	2 µg/mL (≈ 2.21 µM)	2 µg/mL (≈ 2.21 µM)
CC[C@H]1OC(=O)[C@@](C)(F)C(=O)[C@H](C)[C@@H](O[C@@H]2O[C@H](C)C[C@H](N(C)C)[C@H]2O)[C@@]2(C)C[C@@H](C)C(=NC(=O)C(C)C)[C@H](C)[C@@H](OC/C(=N\OCc3ncc(-c4cccc(N)n4)s3)CO2)[C@]1(C)O [Example 111]	2 µg/mL (≈ 2.18 µM)	2 µg/mL (≈ 2.18 µM)
CC[C@H]1OC(=O)[C@@](C)(F)C(=O)[C@H](C)[C@@H](O[C@@H]2O[C@H](C)C[C@H](N(C)C)[C@H]2O)[C@@]2(C)C[C@@H](C)C(=NC(=O)C3CC3)[C@H](C)[C@@H](OC/C(=N\OCc3ncc(-c4cccc(N)n4)s3)CO2)[C@]1(C)O [Example 112]	4 µg/mL (≈ 4.36 µM)	8 µg/mL (≈ 8.72 µM)
CC[C@H]1OC(=O)[C@@](C)(F)C(=O)[C@H](C)[C@@H](O[C@@H]2O[C@H](C)C[C@H](N(C)C)[C@H]2O)[C@@]2(C)C[C@@H](C)C(=NC(=O)C(C)C)[C@H](C)[C@@H](OC/C(=N\OCc3ccc(-n4ccc(N)n4)cc3Cl)CO2)[C@]1(C)O [Example 116]	4 µg/mL (≈ 4.28 µM)	4 µg/mL (≈ 4.28 µM)
CCC(=O)N=C1[C@H](C)C[C@@]2(C)OC/C(=N/OCc3cnc(-c4cccc(N)n4)s3)CO[C@H]([C@H]1C)[C@](C)(O)[C@@H](CC)OC(=O)[C@@](C)(F)C(=O)[C@H](C)[C@H]2O[C@@H]1O[C@H](C)C[C@H](N(C)C)[C@H]1O [Example 117]	2 µg/mL (≈ 2.21 µM)	4 µg/mL (≈ 4.42 µM)
CC[C@H]1OC(=O)[C@@](C)(F)C(=O)[C@H](C)[C@@H](O[C@@H]2O[C@H](C)C[C@H](N(C)C)[C@H]2O)[C@@]2(C)C[C@@H](C)C(=NC(=O)C(C)C)[C@H](C)[C@@H](OC/C(=N\OCc3coc(-c4cccc(N)n4)n3)CO2)[C@]1(C)O [Example 118]	4 µg/mL (≈ 4.43 µM)	8 µg/mL (≈ 8.86 µM)
CCC(=O)N=C1[C@H](C)C[C@@]2(C)OC/C(=N/OCc3ccc(-c4nc(N)cs4)cn3)CO[C@H]([C@H]1C)[C@](C)(O)[C@@H](CC)OC(=O)[C@H](C)C(=O)[C@H](C)[C@H]2O[C@@H]1O[C@H](C)C[C@H](N(C)C)[C@H]1O [Example 119]	4 µg/mL (≈ 4.51 µM)	8 µg/mL (≈ 9.02 µM)
CCC(=O)N=C1[C@H](C)C[C@@]2(C)OC/C(=N/OCc3ccc(-c4nc(N)cs4)cc3)CO[C@H]([C@H]1C)[C@](C)(O)[C@@H](CC)OC(=O)[C@H](C)C(=O)[C@H](C)[C@H]2O[C@@H]1O[C@H](C)C[C@H](N(C)C)[C@H]1O [Example 121]	8 µg/mL (≈ 9.03 µM)	8 µg/mL (≈ 9.03 µM)
CCC(=O)N=C1[C@H](C)C[C@@]2(C)OC/C(=N/OCc3ccc(-c4nsc(N)n4)cn3)CO[C@H]([C@H]1C)[C@](C)(O)[C@@H](CC)OC(=O)[C@@](C)(F)C(=O)[C@H](C)[C@H]2O[C@@H]1O[C@H](C)C[C@H](N(C)C)[C@H]1O [Example 123]	4 µg/mL (≈ 4.41 µM)	4 µg/mL (≈ 4.41 µM)
CC[C@H]1OC(=O)[C@@](C)(F)C(=O)[C@H](C)[C@@H](O[C@@H]2O[C@H](C)C[C@H](N(C)C)[C@H]2O)[C@@]2(C)C[C@@H](C)C(=NC(=O)OC)[C@H](C)[C@@H](OC/C(=N\OCc3ccc(-n4ccc(N)n4)cn3)CO2)[C@]1(C)O [Example 124]	4.00 µg/mL (≈ 4.49 µM)	8.00 µg/mL (≈ 8.99 µM)
CCC(=O)N=C1[C@H](C)C[C@@]2(C)OC/C(=N/OCc3ccc(-c4csc(N)n4)cn3)CO[C@H]([C@H]1C)[C@](C)(O)[C@@H](CC)OC(=O)[C@@](C)(F)C(=O)[C@H](C)[C@H]2O[C@@H]1O[C@H](C)C[C@H](N(C)C)[C@H]1O [Example 125]	4 µg/mL (≈ 4.42 µM)	8 µg/mL (≈ 8.84 µM)
CCC(=O)N=C1[C@H](C)C[C@@]2(C)OC/C(=N/OCc3ccc(-c4nsc(N)n4)nc3)CO[C@H]([C@H]1C)[C@](C)(O)[C@@H](CC)OC(=O)[C@@](C)(F)C(=O)[C@H](C)[C@H]2O[C@@H]1O[C@H](C)C[C@H](N(C)C)[C@H]1O [Example 129]	4.00 µg/mL (≈ 4.41 µM)	8.00 µg/mL (≈ 8.83 µM)
CC[C@H]1OC(=O)[C@@](C)(F)C(=O)[C@H](C)[C@@H](O[C@@H]2O[C@H](C)C[C@H](N(C)C)[C@H]2O)[C@@]2(C)C[C@@H](C)C(=NC(=O)C(C)C)[C@H](C)[C@@H](OC/C(=N\OCc3ccc(-c4nsc(N)n4)cn3)CO2)[C@]1(C)O [Example 130]	2.00 µg/mL (≈ 2.17 µM)	4.00 µg/mL (≈ 4.35 µM)

Second part, the molecule after the results:

MIC MRSA 7662	MIC MRSA 33591	Structure (SMILES)
8 µg/mL (≈ 9.04 µM)	8 µg/mL (≈ 9.04 µM)	CC[C@H]1OC(=O)[C@@](C)(F)C(=O)[C@H](C)[C@@H](O[C@@H]2O[C@H](C)C[C@H](N(C)C)[C@H]2O)[C@@]2(C)C[C@@H](C)C(=NC(C)=O)[C@H](C)[C@@H](OC/C(=N\OCc3ccc(-c4nccc(N)n4)cc3)CO2)[C@]1(C)O [Example 105]
8 µg/mL (≈ 8.97 µM)	16 µg/mL (≈ 17.9 µM)	CC[C@H]1OC(=O)[C@@](C)(F)C(=O)[C@H](C)[C@@H](O[C@@H]2O[C@H](C)C[C@H](N(C)C)[C@H]2O)[C@@]2(C)C[C@@H](C)C(=NC(C)=O)[C@H](C)[C@@H](OC/C(=N\OCc3ccc(-c4nsc(N)n4)cn3)CO2)[C@]1(C)O [Example 107]
2 µg/mL (≈ 2.18 µM)	2 µg/mL (≈ 2.18 µM)	CC[C@H]1OC(=O)[C@@](C)(F)C(=O)[C@H](C)[C@@H](O[C@@H]2O[C@H](C)C[C@H](N(C)C)[C@H]2O)[C@@]2(C)C[C@@H](C)C(=NC(=O)C(C)C)[C@H](C)[C@@H](OC/C(=N\OCc3ccc(-c4nc(N)cs4)cn3)CO2)[C@]1(C)O [Example 109]
4 µg/mL (≈ 4.44 µM)	8 µg/mL (≈ 8.89 µM)	CCC(=O)N=C1[C@H](C)C[C@@]2(C)OC/C(=N/OCc3ccc(-c4nccc(N)n4)cn3)CO[C@H]([C@H]1C)[C@](C)(O)[C@@H](CC)OC(=O)[C@@](C)(F)C(=O)[C@H](C)[C@H]2O[C@@H]1O[C@H](C)C[C@H](N(C)C)[C@H]1O [Example 113]
4 µg/mL (≈ 4.38 µM)	8 µg/mL (≈ 8.75 µM)	CC[C@H]1OC(=O)[C@@](C)(F)C(=O)[C@H](C)[C@@H](O[C@@H]2O[C@H](C)C[C@H](N(C)C)[C@H]2O)[C@@]2(C)C[C@@H](C)C(=NC(=O)C(C)C)[C@H](C)[C@@H](OC/C(=N\OCc3ccc(-c4nccc(N)n4)cn3)CO2)[C@]1(C)O [Example 114]
4 µg/mL (≈ 4.42 µM)	4 µg/mL (≈ 4.42 µM)	CCC(=O)N=C1[C@H](C)C[C@@]2(C)OC/C(=N/OCc3ccc(-c4nc(N)cs4)cc3)CO[C@H]([C@H]1C)[C@](C)(O)[C@@H](CC)OC(=O)[C@@](C)(F)C(=O)[C@H](C)[C@H]2O[C@@H]1O[C@H](C)C[C@H](N(C)C)[C@H]1O [Example 120]
4.00 µg/mL (≈ 4.42 µM)	4.00 µg/mL (≈ 4.42 µM)	CCC(=O)N=C1[C@H](C)C[C@@]2(C)OC/C(=N/OCc3ccc(-c4csc(N)n4)cc3)CO[C@H]([C@H]1C)[C@](C)(O)[C@@H](CC)OC(=O)[C@@](C)(F)C(=O)[C@H](C)[C@H]2O[C@@H]1O[C@H](C)C[C@H](N(C)C)[C@H]1O [Example 122]
4 µg/mL (≈ 4.57 µM)	8 µg/mL (≈ 9.14 µM)	CC[C@H]1OC(=O)[C@@](C)(F)C(=O)[C@H](C)[C@@H](O[C@@H]2O[C@H](C)C[C@H](N(C)C)[C@H]2O)[C@@]2(C)C[C@@H](C)C(=NC(C)=O)[C@H](C)[C@@H](OC/C(=N\OCc3coc(-c4cccc(N)n4)n3)CO2)[C@]1(C)O [Example 126]
2.00 µg/mL (≈ 2.21 µM)	4.00 µg/mL (≈ 4.42 µM)	CCC(=O)N=C1[C@H](C)C[C@@]2(C)OC/C(=N/OCc3ccc(-c4nsc(N)n4)cc3)CO[C@H]([C@H]1C)[C@](C)(O)[C@@H](CC)OC(=O)[C@@](C)(F)C(=O)[C@H](C)[C@H]2O[C@@H]1O[C@H](C)C[C@H](N(C)C)[C@H]1O [Example 127]
4.00 µg/mL (≈ 4.42 µM)	8.00 µg/mL (≈ 8.84 µM)	CCC(=O)N=C1[C@H](C)C[C@@]2(C)OC/C(=N/OCc3ccc(-c4nc(N)cs4)nc3)CO[C@H]([C@H]1C)[C@](C)(O)[C@@H](CC)OC(=O)[C@@](C)(F)C(=O)[C@H](C)[C@H]2O[C@@H]1O[C@H](C)C[C@H](N(C)C)[C@H]1O [Example 128]
4.00 µg/mL (≈ 4.41 µM)	8.00 µg/mL (≈ 8.83 µM)	CCC(=O)N=C1[C@H](C)C[C@@]2(C)OC/C(=N/OCc3cnc(-c4nccc(N)n4)s3)CO[C@H]([C@H]1C)[C@](C)(O)[C@@H](CC)OC(=O)[C@@](C)(F)C(=O)[C@H](C)[C@H]2O[C@@H]1O[C@H](C)C[C@H](N(C)C)[C@H]1O [Example 131]
